# Data as given in publication PMC6396489 (Cell Communication and Signaling : CCS, 2019).
# What was measured:
# Src [1] = assay: Western blotting of Src and PLCγ phosphorylation in NIH3T3 cells; type: cell-based
# Description: (§1) NIH3T3 and Raw 264.7 cells were cultured in DMEM supplemented with 2 mM L-glutamine, 50 U/mL penicillin, […] streptomycin, and 10% CS or heat-inactivated FBS (30 min at 55 °C), respectively. NIH3T3 cells were transfected with different plasmids using the Lipofectamine LTX/plus reagent according to the manufacturer’s instructions. For immunofluorescence experiments, NIH3T3 cells were seeded onto glass coverslips in 24-well plates at a concentration suitable for 70% confluence without transfection or 50% confluence in the case of Lipofectamine-based cell transfection. In the latter, approximately 24 h after seeding, NIH3T3 cells were transiently transfected with different plasmids with the Lipofectamine LTX/plus reagent following the manufacturer’s instructions. Before treatments, NIH3T3 cells were serum-starved in DMEM with 2 mM glutamine, 50 U/mL penicillin and streptomycin for 16–20 h. The cells were then treated with different stimuli and/or inhibitors, as indicated in the text and/or Figure legends. Addition of exogenous GroPIns4P was at 50 μM (unless otherwise indicated), a concentration eliciting an intracellular concentration of about 1.5 μM, as calculated from the Nernst equation (with T = 300 K, z = − 3, and Veq = − 30 mV, an average value for cultured, non-excitable cells).
# NIH3T3 cells were washed with ice-cold PBS and lysed on ice in buffer containing 20 mM Tris-HCl, pH 8.0, 150 mM NaCl, 1% Triton-X100, 5 mM Na3VO4, 30 mM β-glycerophosphate and 10 mM NaF supplemented with the protease inhibitor cocktail and processed for SDS-PAGE. Westen blotting was performed with the relevant antibodies. For immunoprecipitation experiments, 2 μg of an anti-Shp1 antibody or 5 μg of an anti-Src antibody were added to 1 mg of NIH3T3 cell lysates at 4 °C and incubated overnight. The samples were then incubated with A or G protein agarose beads for 1 h at 4 °C. Western blotting was performed from the washed and denatured complexes.
# NIH3T3 cells = assay: Immunofluorescence analysis for membrane ruffling; type: cell-based
# Description: as §1
# For ruffle assessment after treatments, immunofluorescence labelling and morphological analysis of the cells were performed as previously described in a double-blind fashion. In brief, the assessment was based on a null score (zero) for the absence of the feature, followed by a score of one or two according to the level of response of each individual cell, where one indicate that ruffling was confined to one area of the cell (< 25% of the cell circumference), and two indicate that two or more discrete areas of the cell contained ruffles. The cell phenotypes were quantified by counting 150 cells in each sample. The data were then expressed as percentage scores (±SD) for each treatment response compared with its respective control. Scoring of the control cells was performed in the same way to evaluate the presence of the features of interest in untreated cells.
# Src [2] = system: Src; set-up: method as in PMID 18722484; details: cited from earlier work
# [3] = molecular target: T1, Shp1 S118A/R138E/S140A mutant (Homo sapiens, UniProt P29350, R136E/S116A/S138A); assay: Trp fluorescence emission spectroscopy of Shp1 S118A/R138E/S140A mutant; type: binding; details: S118A/R138E/S140A vs wild type
# T1 construct: a tailless-form of Shp1 (residues 1–529) has previously been used [25] and it is used also in this study; 6xHis (N); made in house; host or cells: E. coli BL21(DE3)
# T1 sequence (P29350 1-529 isoform P29350-3 S118A/R138E/S140A): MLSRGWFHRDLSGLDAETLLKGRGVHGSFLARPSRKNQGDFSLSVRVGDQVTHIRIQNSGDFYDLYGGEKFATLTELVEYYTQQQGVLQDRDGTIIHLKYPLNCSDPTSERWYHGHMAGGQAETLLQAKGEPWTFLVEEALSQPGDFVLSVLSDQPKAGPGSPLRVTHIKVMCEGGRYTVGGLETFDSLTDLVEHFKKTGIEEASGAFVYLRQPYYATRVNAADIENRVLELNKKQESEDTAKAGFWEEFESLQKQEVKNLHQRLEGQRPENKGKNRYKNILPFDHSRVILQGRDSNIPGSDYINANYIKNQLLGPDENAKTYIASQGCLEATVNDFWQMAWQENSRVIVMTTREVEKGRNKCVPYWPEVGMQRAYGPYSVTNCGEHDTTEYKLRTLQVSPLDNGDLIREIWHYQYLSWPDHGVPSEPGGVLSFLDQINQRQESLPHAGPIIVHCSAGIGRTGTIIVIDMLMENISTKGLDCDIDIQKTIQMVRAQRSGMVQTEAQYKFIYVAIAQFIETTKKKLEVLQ
# Description: The absorption spectra of Shp1 were recorded using a Varian Cary 1 spectrophotometer. Steady-state fluorescence emission measurements were performed with a K2 fluorometer (ISS, Champaign, IL, USA) equipped with a two-cell temperature-controlled sample holder. To selectively excite Trp residues, the excitation wavelength was set at 295 nm with a slit width of 1 nm. To avoid the inner-filter effect, all steady-state fluorescence measurements were performed on Shp1 with optical densities at 295 nm less than 0.1 OD. All measurements were made at 25 °C with the temperature of the samples determined in the cuvette with an accuracy of ±0.2 °C. For each experiment, the Shp1 concentration was fixed at 1.2 μM, while GroPIns4P was varied from 0.0 to 5.0 μM. Thus, a 500 μL solution containing 1.2 μM Shp1 dissolved in PBS pH 7.4 was titrated by successive additions of GroPIns4P (dissolved in PBS buffer, pH 7.4). After each addition, the samples were incubated for 2 min and fluorescence emission spectra were recorded between 310 and 410 nm in triplicate. To exclude the influence of sample dilution, fluorescence titration experiments were performed by adding the same amount of PBS buffer in the total volume (500 μL).
# [4] = NIH3T3 overexpressing Shp1-C455S, 50 μM
compound,measurement,setting,value
"O=P(O)(O)OC1C(O)C(O)C(OP(=O)(O)OCC(O)CO)C(O)C1O (centres unmarked) [GroPIns4P, glycerophosphoinositol 4-phosphate]",phosphorylation of PLCγ on Tyr783,"Src [1]; NIH3T3, 50 μM",induced an increase in phosphorylation
same,Src activating Tyr418 phosphorylation,"Src [1]; NIH3T3, 50 μM for 2 to 5 min",increased
same,Src inhibitory Tyr530 phosphorylation,"Src [1]; NIH3T3, 50 μM for 2 to 5 min",markedly decreased
same,Src Tyr418 or PLCγ tyrosine phosphorylation,Src [1]; [4],no increase
same,Src dephosphorylation (pTyr530),Src [1]; [4],failed to induce Src dephosphorylation
same,increase in peripheral ruffles versus the control,NIH3T3 cells; 50 μM GroPIns4P for 5 min,2.5–3 fold
same,effect on ruffle formation,"NIH3T3 cells; cells expressing Shp1 S118A/R138E/S140A, 50 μM GroPIns4P",significantly inhibited
same,membrane ruffle formation,"NIH3T3 cells; cells over-expressing Shp1-C455S, 50 μM GroPIns4P",did not lead to membrane ruffle formation
same,actin ruffle formation,"NIH3T3 cells; cells over-expressing Shp1 S12A/R32E/S34A, 50 μM GroPIns4P",resulted in the induction of actin ruffles
same,direct interaction with Src,Src [2],no direct interaction
same,decrease of binding efficiency of the mutated protein,[3],up to 50%
